For 11 compounds, GI50 and TGI results are on record in PubChem BioAssay (NCI).

What all share (test): NCI-60 cell line screen, 48 h
Experiment [1] concerns HOP-62 NSCLC.
Experiment [2] relates to MOLT-4 leukemia.
For experiment [3], the system named is SR leukemia.
Experiment [4] concerns PC-3 prostate.
Experiment [5] concerns NCI-H460 lung.
In experiment [6] the test system is SF-268 CNS.
In experiment [7] the test system is A498 renal.
The test system of experiment [8] is A549 NSCLC.
Experiment [9] deals with OVCAR-5 ovarian.
For experiment [10], the system named is HL-60(TB) leukemia.

Several values for one entry are separate records, joined by “and”; a condition that tells them apart may be missing. Equal entries are not always repeated.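 Exposure lasted 48 hours, with cells grown in 96-well plates and compounds tested at five concentrations. GI50 = concentration required for 50% inhibition of growth. TGI is the concentration that stops growth completely.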

With `COc1cc(C2CC(=O)Nc3c2c(C)nn3-c2nc3ccccc3[nH]2)cc(OC)c1O` (configuration not stated), the GI50 in experiment [1] was 3.72 µM; in [2], 0.0427 µM; in experiment [3], 3.35 µM; in experiment [4], 3.49 µM; in experiment [5] it was 3.19 µM; in [6], 3.83 µM. Further, the GI50 in [7] is 1.86 µM; in experiment [8] it was 3.45 µM; in experiment [9], 11.6 µM; in [10] it was 3.05 µM. Further, the TGI in [1] was 17 µM; in experiment [2], 0.242 µM; in experiment [3], 14.5 µM; in [4], 38.8 µM; in [5] it was over 35.1 µM; in [6] it was 45 µM. Further, the TGI was 6.1 µM in [7], over 40.2 µM in [8], 30.4 µM in experiment [9] and 16.8 µM in experiment [10].
`NC(N)=Nc1ccc(/C=C2\C=Cc3ccccc32)cc1`: the GI50 in experiment [1] was 2.4 µM; in [2] it was 2.41 µM; in experiment [3] it was 2.5 µM; in experiment [4], 3.31 µM; in experiment [5], 2.01 µM; in experiment [6] it was 3.12 µM. The GI50 in experiment [7] was 4.83 µM; in experiment [8] it was 1.87 µM; in experiment [9], 2.61 µM; in experiment [10] it was 2.67 µM. Besides, the TGI in experiment [1] came to 6.23 µM; in experiment [2] it was 5.22 µM; in experiment [3], 6.85 µM; in experiment [4], 14.8 µM; in experiment [5], 4.51 µM; in experiment [6] it was 10.9 µM. Besides, the TGI amounted to 19.2 µM in experiment [7], 4.63 µM in [8], 6.77 µM in [9] and 5.87 µM in experiment [10].
In the case of `COc1ccc(Cn2cc3c(c2-c2cc(OC)c(OC)c(OC)c2)CCc2c(CO)noc2-3)cc1`, the GI50 in experiment [1] was 0.397 µM; in experiment [2] it was 0.458 µM; in [3], 0.194 µM; in experiment [4], 0.309 µM; in experiment [5] it was 0.341 µM; in experiment [6], 1.58 µM. For the same compound, the GI50 is 0.187 µM in experiment [7], 0.439 µM in [8], 0.543 µM in experiment [9] and 0.231 µM in experiment [10]. Also, the TGI in experiment [1] was 25.7 µM; in [2], 27.8 µM; in [3], 23.2 µM; in experiment [4], 41.9 µM; in [5] it was 13.6 µM; in experiment [6], 26.5 µM. The TGI in experiment [7] was 3.03 µM; in experiment [8] it was over 100 µM; in experiment [9], over 82.3 µM; in [10], 0.656 µM.
With `C=CCOC(=O)Nc1cccn([C@H](CC(C)C)C(=O)NCCC(C)C)c1=O`, the GI50 in experiment [1] is over 100 µM; in experiment [2] it was 61.9 µM; in experiment [3], 72.7 µM; in experiment [4], 49.7 µM; in experiment [5], over 100 µM; in experiment [6], 84.8 µM. The GI50 was 17.2 µM in experiment [7], 78.5 µM in [8], over 100 µM in experiment [9] and 58.9 µM in experiment [10]. Besides, the TGI in experiment [1], in [2], in experiment [3], in experiment [4], in [5] and in [6] was over 100 µM throughout. Further, the TGI in [7], in experiment [8], in [9] and in [10] was over 100 µM throughout.
Turning to `CN1CCN(CCCN2c3ccccc3Sc3ccc(Cl)cc32)CC1`, the GI50 in experiment [1] is 6.32 µM and 48.5 µM; in [2], 3.8 µM; in [3], 2.99 µM; in experiment [4], 3.39 µM; in [6], 5.27 µM; in experiment [8], 6.5 µM and 56.8 µM. In addition, the GI50 in experiment [9] was 7.09 µM and 43.1 µM; in experiment [10], 8.85 µM. Also, the TGI in [1] was 13.6 µM and 85.6 µM; in experiment [2] it was 11.5 µM; in experiment [3], 11.3 µM; in experiment [4], 10.4 µM and 80.7 µM; in experiment [5] it was 11.4 µM and 80.5 µM; in experiment [6], 12 µM. For the same compound, the TGI in experiment [7] was 5.82 µM and 31.6 µM; in experiment [8], 13.7 µM; in experiment [9], 14 µM and 62.9 µM; in experiment [10], 17.9 µM.
With `COc1ccc(-c2[nH]nc(N)c2-c2cc(OC)c(OC)c(OC)c2)cc1`, the GI50 was 0.0442 µM in experiment [1]; 0.0487 µM in experiment [2]; 0.0285 µM in experiment [3]; 0.0367 µM in [4]; 0.0363 µM in [5]; 0.0756 µM in experiment [6]. Moreover, the GI50 was 0.021 µM in [7], 0.0447 µM in experiment [8], 0.0659 µM in experiment [9] and 0.0236 µM in [10]. Further, the TGI was over 100 µM in [1]; over 42 µM in experiment [3]; over 100 µM in experiment [4]; over 33.7 µM in experiment [5]; 33.3 µM in [6]; 0.0832 µM in experiment [7]. Also, the TGI in experiment [8] was over 100 µM; in experiment [9] it was over 100 µM; in experiment [10] it was 0.0622 µM.
For the compound `Cc1cccc(Cl)c1NC(=O)c1cnc(Nc2cc(N3CCOCC3)cc(S(C)(=O)=O)c2)s1`, the GI50 in experiment [1] was 0.198 µM; in experiment [2], 5.71 µM; in experiment [3] it was over 10 µM; in experiment [4], 1.46 µM; in experiment [5], over 9.52 µM; in experiment [6], 0.354 µM. For the same compound, the GI50 in [7] is 0.254 µM; in experiment [8] it was 2.16 µM; in experiment [9], 0.257 µM; in experiment [10], 9.76 µM. The TGI in experiment [1], in experiment [2], in experiment [3], in experiment [4], in [5] and in experiment [6] was over 10 µM throughout. In addition, the TGI is 2.39 µM in experiment [7], over 10 µM in experiment [8], over 10 µM in experiment [9] and over 10 µM in experiment [10].
Take `COc1ccc(-c2cn(-c3cc(OC)c(OC)c(OC)c3)c(=O)[nH]2)cc1OC`: the GI50 in experiment [1], in experiment [2], in experiment [3], in [4], in experiment [5] and in experiment [6] was over 100 µM throughout. The GI50 in [7] was 80.3 µM; in experiment [8] it was over 100 µM; in experiment [9] it was over 100 µM; in experiment [10], over 100 µM. In addition, the TGI in [1], in experiment [2], in [3], in [4], in [5] and in [6] was over 100 µM in each case. The TGI in experiment [7], in experiment [8], in experiment [9] and in experiment [10] was over 100 µM each time.
Turning to `Nc1nn(C(=O)Nc2c(F)cccc2F)c2ccccc12`, the GI50 is 51 µM in experiment [1]; 32.7 µM in [2]; 12.9 µM in experiment [3]; over 100 µM in experiment [4]; 33.4 µM in experiment [5]; 36.2 µM in experiment [6]. The GI50 in [7] was 31.4 µM; in [8], 48.5 µM; in experiment [9], over 100 µM; in experiment [10], 33.2 µM. The TGI in experiment [1], in [2], in experiment [3], in experiment [4], in [5] and in [6] was over 100 µM throughout. Also, the TGI in experiment [7], in experiment [8], in experiment [9] and in [10] was over 100 µM in each case.
In the case of `CC(C)Cc1ccc(C(C)C(=O)NCc2ccc(Cn3c(=O)sn(CCCI)c3=O)cc2)cc1` (configuration not stated), the GI50 in [1] is 1.53 µM; in experiment [2] it was 0.511 µM; in experiment [3] it was 0.364 µM; in experiment [4] it was 0.732 µM; in experiment [5], 1.36 µM; in experiment [6], 1.46 µM. For the same compound, the GI50 was 1.43 µM in experiment [7], 1.39 µM in experiment [8], 1.39 µM in [9] and 0.775 µM in experiment [10]. Also, the TGI in experiment [1] was 3.6 µM; in experiment [2], over 28.3 µM; in [3], over 100 µM; in [4] it was 2.07 µM; in [5], 3.08 µM; in experiment [6] it was 2.95 µM. The TGI in [7] is 2.75 µM; in experiment [8] it was 3.12 µM; in [9] it was 2.84 µM; in [10], over 22.7 µM.
As for `CC1Cc2ccccc2N1C(=O)Cc1nc(N2CCOCC2)cc(=O)[nH]1` (configuration not stated), the GI50 in experiment [1] was 53.8 µM and 59.9 µM; in experiment [2], 15.8 µM and 27.5 µM; in experiment [3], 22.6 µM and 24.4 µM; in experiment [4], 2.47 µM and 5.2 µM; in experiment [5], 17.2 µM and 32 µM; in [6] it was 18.1 µM and 19.9 µM. The GI50 in experiment [7] was 0.026 µM and 0.0929 µM; in experiment [8] it was 17.3 µM and 24.5 µM; in experiment [9] it was 9.09 µM and 18.2 µM; in [10], 20.7 µM and 25.5 µM. The TGI in experiment [1] is over 100 µM; in [2], over 100 µM; in [3], 97.3 µM and > 100 µM; in experiment [4], over 100 µM; in experiment [5] it was over 100 µM; in experiment [6], over 100 µM. Besides, the TGI in [7] was 0.189 µM and 0.559 µM; in [8], over 100 µM; in experiment [9], over 100 µM; in experiment [10] it was over 100 µM.
